From patent publication US20250236654A1, “C-TYPE NATRIURETIC PEPTIDE ENGRAFTED ANTIBODIES” (Bayer Aktiengesellschaft, priority 2018, published 2025)
Where a SMILES comes first, the peptide text is derived from it. Bridges are numbered along the chain shown (N, C = ends). Where no end group is shown, it is not given here.

Assays:
rat BNP receptor (NPR-A) = molecular target: T1, rat BNP receptor (NPR-A) (Rattus norvegicus, UniProt P18910); experiment: Fluorescence-based rat BNP receptor (NPR-A) GCaMP6 reporter cell line
T1 construct: expressed in transfected cells; host or cells: CHO cell line stably expressing GCaMP6, co-transfected with CNGA2 and rat NPR-A
T1 sequence (P18910 29-1057): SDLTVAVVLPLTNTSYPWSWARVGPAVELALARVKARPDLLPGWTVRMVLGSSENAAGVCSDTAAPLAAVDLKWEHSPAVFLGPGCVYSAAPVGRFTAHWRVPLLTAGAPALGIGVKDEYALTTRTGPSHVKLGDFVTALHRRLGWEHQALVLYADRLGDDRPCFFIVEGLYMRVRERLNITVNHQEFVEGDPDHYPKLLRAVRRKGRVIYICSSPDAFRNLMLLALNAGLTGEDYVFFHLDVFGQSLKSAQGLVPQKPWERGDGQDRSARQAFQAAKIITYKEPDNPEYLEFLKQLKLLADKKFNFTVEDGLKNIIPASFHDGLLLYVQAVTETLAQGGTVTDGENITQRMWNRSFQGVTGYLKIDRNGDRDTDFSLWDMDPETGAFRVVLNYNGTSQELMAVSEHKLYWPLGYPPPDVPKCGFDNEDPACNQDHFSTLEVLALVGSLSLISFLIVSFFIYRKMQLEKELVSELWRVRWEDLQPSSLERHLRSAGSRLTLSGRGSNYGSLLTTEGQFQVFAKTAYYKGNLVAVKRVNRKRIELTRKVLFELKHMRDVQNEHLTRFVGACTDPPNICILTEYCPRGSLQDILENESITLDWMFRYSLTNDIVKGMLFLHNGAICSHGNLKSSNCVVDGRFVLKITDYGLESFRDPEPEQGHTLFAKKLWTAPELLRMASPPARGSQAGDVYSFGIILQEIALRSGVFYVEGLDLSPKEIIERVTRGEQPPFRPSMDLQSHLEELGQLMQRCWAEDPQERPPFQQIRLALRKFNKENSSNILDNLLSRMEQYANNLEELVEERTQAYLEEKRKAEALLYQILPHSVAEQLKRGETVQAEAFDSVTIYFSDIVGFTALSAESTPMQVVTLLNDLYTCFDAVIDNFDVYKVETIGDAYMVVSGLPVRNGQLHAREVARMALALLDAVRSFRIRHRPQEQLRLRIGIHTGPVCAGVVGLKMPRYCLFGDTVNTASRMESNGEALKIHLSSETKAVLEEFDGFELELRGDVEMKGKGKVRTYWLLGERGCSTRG
Excerpt: Activity data of BNP engrafted antibodies in NPR-A receptor cell line A luminescence-based rat BNP receptor (NPR-A) cell line was generated as described previously (Wunder et al. (2013), Eur J Pharmacol. 698: 131). Accordingly, a fluorescence-based rat BNP receptor (NPR-A) cell line was generated by co-transfecting a CHO cell line, stably expressing the fluorescent calcium sensor protein GCaMP6, with plasmid constructs encoding CNGA2 (cGMP biosensor) and rat NPR-A.
BNP receptor GCaMP6 cells were cultured for one day on black, clear-bottom 384-well microtiter plates (2500 cells/well). After removal of the cell culture medium reporter cells were loaded for 20 min with Tyrode (130 mM NaCl, 5 mM KCl, 2 mM CaCl2, 20 mM HEPES, 1 mM MgCl2, 4.8 mM NaHCO3 at pH 7.4) containing a black masking dye at 37° C. and 5% CO2. IBMX (0.2 mM) was used to prevent cGMP degradation by endogenous phosphodiesterases.
Fluorescence measurements (3 min, kinetic mode) were directly started upon agonist addition. Receptor ligands were added in Tyrode containing a black masking dye and 0.1% BSA. Measurements were done on a FLIPR Tetra®.

[1] = molecular target: T2, neutral endopeptidase (NEP) (Homo sapiens, UniProt P08473); experiment: Sensitivity towards proteolytic degradation by NEP (activity on receptor cell line after incubation); type: in vitro ADME; conditions: 4 hours, 37° C., 0.6 μg/ml NEP
T2 construct: purchased R&D Systems 1182-ZNC

[2] = molecular target: T3, insulin degrading enzyme (IDE) (Rattus norvegicus, UniProt P35559); experiment: Sensitivity towards proteolytic degradation by IDE (activity on receptor cell line after incubation); type: in vitro ADME; conditions: 4 hours, 37° C., 0.6 μg/ml IDE
T3 construct: purchased Merck 407241-50UG
T3 sequence (P35559 1-1019): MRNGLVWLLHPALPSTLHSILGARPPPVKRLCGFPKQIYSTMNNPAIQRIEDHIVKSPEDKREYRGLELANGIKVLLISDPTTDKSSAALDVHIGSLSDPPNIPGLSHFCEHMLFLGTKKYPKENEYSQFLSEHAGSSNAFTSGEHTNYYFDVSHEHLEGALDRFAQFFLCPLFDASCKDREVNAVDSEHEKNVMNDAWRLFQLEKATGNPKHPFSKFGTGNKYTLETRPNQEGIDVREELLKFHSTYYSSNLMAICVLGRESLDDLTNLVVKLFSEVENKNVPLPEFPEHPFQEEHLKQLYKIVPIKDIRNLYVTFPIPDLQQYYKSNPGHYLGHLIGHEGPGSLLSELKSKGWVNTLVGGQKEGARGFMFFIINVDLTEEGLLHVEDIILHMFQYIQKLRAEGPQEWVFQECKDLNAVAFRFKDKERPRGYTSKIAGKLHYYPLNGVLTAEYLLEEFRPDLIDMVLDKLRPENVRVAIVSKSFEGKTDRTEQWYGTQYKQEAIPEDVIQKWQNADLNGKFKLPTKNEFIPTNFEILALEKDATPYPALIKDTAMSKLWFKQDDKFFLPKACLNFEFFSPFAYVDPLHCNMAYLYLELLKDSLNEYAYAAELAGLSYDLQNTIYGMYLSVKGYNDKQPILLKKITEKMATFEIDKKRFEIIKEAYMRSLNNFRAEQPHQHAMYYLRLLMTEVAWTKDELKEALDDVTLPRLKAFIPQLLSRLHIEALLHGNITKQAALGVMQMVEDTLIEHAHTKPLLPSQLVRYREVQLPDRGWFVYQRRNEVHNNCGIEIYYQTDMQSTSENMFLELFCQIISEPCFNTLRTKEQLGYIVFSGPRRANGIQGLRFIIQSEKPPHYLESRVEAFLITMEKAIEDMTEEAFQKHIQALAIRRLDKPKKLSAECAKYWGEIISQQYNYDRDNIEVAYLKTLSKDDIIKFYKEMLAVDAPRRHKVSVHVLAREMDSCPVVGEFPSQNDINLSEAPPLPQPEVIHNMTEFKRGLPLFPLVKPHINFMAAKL

[3] = system: PE-contracted aortic rings; experiment: Vasorelaxation of isolated rat aortic rings contracted by phenylephrine
Method: All experiments were conducted in accordance with institutional guidelines and approved by the local committee on animal experiments. Male Sprague-Dawley rats (weighing 250-300 g) were anesthetized with pentobarbital sodium (40 mg/kg i.p.), killed by decapitation, and exsanguinated. The thoracic aorta was excised and placed in ice-cold Krebs buffer of the following composition: 130 mM NaCl, 14.9 mM NaHCO3, 5.5 mM dextrose, 4.7 mM KCl, 1.18 mM KH2PO4, 1.17 mM MgSO47H2O, and 1.6 mM CaCl22H2O. The vessel was pinned in a Sylgard Petri dish filled with chilled Krebs' solution, cleaned of fat and connective tissue, and cut into ring segments of approximately 3 to 4 mm in length. […] Changes in isometric force were recorded using a PowerLab data acquisition system (software Lab Chart 7.0)
After the equilibration period, aortic rings were challenged with 80 mM KCl to check tissue viability. Next, the endothelial integrity of the preparations was determined by verifying the responsiveness to acetylcholine (ACh, 1 μM) in vessels pre-contracted with Phenylephrine (PE, 1 μM). After wash-out and a period of equilibration, Phenylephrine (PE, 1 μM) was used to induce contraction, thereafter natriuretic peptides and natriuretic peptide engrafted IgGs were evaluated for vasorelaxation.

[4] = system: spontaneously hypertensive rats; experiment: Blood pressure by radiotelemetry in conscious spontaneously hypertensive rats; type: in vivo, rat; set-up: drop in mean arterial blood pressure (MAP): dose or concentration left out as unconfirmed; conditions: intraperitoneal
Method: Female spontaneously hypertensive rats (SHR/N Crl BR, Charles River) with a body weight of 210-300 g were used for these studies. All animals were housed in individual cages at 22-24° C. ambient temperature and maintained on a 12-hour light/dark cycle with free access to standard laboratory rat chow and water ad libitum. Telemeter (HD-10, DSI) implantation was performed a minimum of 14 days before animals were used for blood pressure measurements. Surgery was performed under aseptic conditions. After shaving the abdominal wall, a midline abdominal incision was made, and the fluid-filled sensor catheter was inserted upstream into the exposed descending aorta between the iliac bifurcation and the renal arteries. According to the DSI guidelines the tip of the telemetric catheter was located caudal to the renal arteries and secured by tissue adhesive. The transmitter body was affixed to the inner peritoneal wall before closure of the abdomen. […] Data are expressed as % of basal values±SEM of at least 4 animals per group. The basal value for each animal was calculated as the average of the values measured in two hours prior to substance application (7:00-9:00 AM). Data are then expressed as averages every half hour, starting 15 minutes post application. […]

T2 sequence (P08473 whole entry): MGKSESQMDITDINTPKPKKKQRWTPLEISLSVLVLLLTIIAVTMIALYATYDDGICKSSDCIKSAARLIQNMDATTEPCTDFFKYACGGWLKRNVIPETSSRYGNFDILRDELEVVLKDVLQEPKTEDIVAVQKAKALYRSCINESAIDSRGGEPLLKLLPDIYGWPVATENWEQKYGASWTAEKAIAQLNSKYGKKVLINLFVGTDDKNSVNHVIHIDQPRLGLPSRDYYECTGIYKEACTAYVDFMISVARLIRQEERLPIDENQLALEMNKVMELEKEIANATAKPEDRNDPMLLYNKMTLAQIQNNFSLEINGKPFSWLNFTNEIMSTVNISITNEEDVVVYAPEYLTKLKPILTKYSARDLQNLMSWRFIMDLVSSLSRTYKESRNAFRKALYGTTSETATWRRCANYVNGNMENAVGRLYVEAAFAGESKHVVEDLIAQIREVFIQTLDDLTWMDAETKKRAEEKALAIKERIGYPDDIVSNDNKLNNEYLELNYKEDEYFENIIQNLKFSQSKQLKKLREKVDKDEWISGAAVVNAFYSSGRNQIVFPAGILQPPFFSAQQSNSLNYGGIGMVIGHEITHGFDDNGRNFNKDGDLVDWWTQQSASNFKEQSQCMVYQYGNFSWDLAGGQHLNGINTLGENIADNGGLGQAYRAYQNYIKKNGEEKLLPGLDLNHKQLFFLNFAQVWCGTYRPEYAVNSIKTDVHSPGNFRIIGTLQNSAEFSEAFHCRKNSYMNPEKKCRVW

CC[C@H](C)[C@@H]1NC(=O)[C@H](CCCNC(=N)N)NC(=O)[C@H](CC(=O)O)NC(=O)[C@H]([C@@H](C)CC)NC(=O)[C@H](CCCCN)NC(=O)[C@H](CCC(N)=O)NC(=O)CNC(=O)[C@H](Cc2ccccc2)NC(=O)[C@@H](NC(=O)[C@H](CO)NC(=O)[C@H](CO)NC(=O)[C@H](CO)NC(=O)[C@H](Cc2c[nH]cn2)NC(=O)[C@H](C)NC(=O)[C@H](CCSC)NC(=O)[C@H](CCCCN)NC(=O)[C@H](CO)NC(=O)[C@@H](N)CC(N)=O)CSSC[C@@H](C(=O)N[C@@H](CC(=O)O)C(=O)NCC(=O)N[C@@H](CC(C)C)C(=O)N[C@@H](CCCNC(=N)N)C(=O)N[C@@H](CC(C)C)C(=O)N[C@@H](Cc2ccccc2)C(=O)O)NC(=O)CNC(=O)[C@H](CC(C)C)NC(=O)[C@H](CCCNC(=N)N)NC(=O)[C@H](CO)NC(=O)[C@H](C(C)C)NC(=O)[C@H](C)NC(=O)CNC1=O [BNP, reference compound] (H-NSKMAHSSSCFGQKIDRIGAVSRLGCDGLRLF-OH; disulfide 10-26; N-terminus and C-terminus assumed)
EC50 (rat BNP receptor (NPR-A)): 2.9 nM | sensitivity/resistance to proteolytic degradation by NEP [1]: high sensitivity | sensitivity/resistance to proteolytic degradation by IDE [2]: high sensitivity

ANP peptide: Rat ANP peptide (ADH-GM-10057T, Santai Labs) used as a reference (SLRRSSCFGGRIDRIGAQSGLGCNSFRY; disulfide 7-23; UniProt P01161 123-150, looked up) [reference compound]
vasodilation in PE-contracted aortic rings [3]: dose-dependent vasodilation | Potency (log EC50 values), vasodilation ([3]; endothelium-intact rat aortic rings contracted by phenylephrine (1 μM)): −7.4 | drop in mean arterial blood pressure (MAP) [4]: approximately 25% | duration of effect on MAP ([4]; 500 g dose): 6 to 8 h

CC[C@H](C)[C@@H]1NC(=O)[C@H](CCCNC(=N)N)NC(=O)[C@H](CC(=O)O)NC(=O)[C@H](CCSC)NC(=O)[C@H](CCCNC(=N)N)NC(=O)CNC(=O)CNC(=O)[C@H](Cc2ccccc2)NC(=O)[C@@H](NC(=O)[C@H](CO)NC(=O)[C@H](CO)NC(=O)[C@H](CCCNC(=N)N)NC(=O)[C@H](CCCNC(=N)N)NC(=O)[C@H](CC(C)C)NC(=O)[C@@H](N)CO)CSSC[C@@H](C(=O)N[C@@H](CC(N)=O)C(=O)N[C@@H](CO)C(=O)N[C@@H](Cc2ccccc2)C(=O)N[C@@H](CCCNC(=N)N)C(=O)N[C@@H](Cc2ccc(O)cc2)C(=O)O)NC(=O)CNC(=O)[C@H](CC(C)C)NC(=O)CNC(=O)[C@H](CO)NC(=O)[C@H](CCC(N)=O)NC(=O)[C@H](C)NC(=O)CNC1=O [ANP, reference compound]
sensitivity/resistance to proteolytic degradation by IDE [2]: high sensitivity
